Read-outs that look alike come from different tables or passages of the source.
System: SSRI-resistant outpatients with major depressive disorder (MDD)
Conditions: for CGI-S Mean score reduction / HDRS-17 % Remission / HDRS-17 % Response / HDRS-17 Mean score reduction / QIDS-SR % Remission / QIDS-SR % Response / QIDS-SR Mean score reduction: 15 mg/day adjunct to an SSRI
Excerpt: Using the sequential parallel design […] For those randomly assigned to the placebo/placebo sequence, both responders and non-responders to placebo during the first phase (n=25) remain on placebo during the second phase. […] Data from the previous double-blind, placebo-controlled study (Trial 1) can be pooled into the instant study (Trial 2) to provide a more accurate estimate of the placebo effect size, with a weighted average from the two Phases 1 (one from Trial 1 and one from Trial 2) and two Phases 2 (one from Trial 1 and one from Trial 2).
All patients are asked to take one tablet of blinded study medication in the morning, in addition to their stable dose of ongoing SSRI treatment. […] Therefore, for patients randomly assigned to the placebo/placebo sequence, the tablets of study medication are placebo during both phases of the study.
The primary efficacy measure can include the change in 17-item Hamilton Rating Scale for Depression (HAM-D-17) score. […] A remission is, for example, defined as a HAM-D-17 score less than 8 at endpoint. Secondary measures of efficacy can include change in CGI-severity, with “clinical response defined” as CGI-S of 1 or 2 at endpoint. Patients with a CGI-I score greater than 5 at any post baseline visit or a 50 percent or greater worsening of depressive symptoms from baseline to that visit are discontinued from the study. Subjects are also discontinued from the study with any emergence of suicidality, homicidality, mania, or psychosis. Additional exemplary instruments that can be administered according to the study schedule include the following: • (1) Structured Clinical Interview for DSM-IV: The SCID-I/P, administered by the clinician, proceeds by modules to diagnose the different Axis I disorders. Questions are asked exactly as written, and each is based on the individual criteria from DSM-IV. Answers are generally rated on a scale of 1-3 (1=doubtful, 2=probable, 3=definite), and, based on the number of positive answers, a diagnosis is determined by a clinician. While the entire SCID-I/P is administered at screen, the mood module is administered at each follow up visit. • (2) The MGH Antidepressant Treatment History Questionnaire (MGH-ATR): The MGH-ATR provides specific criteria for the adequate dose and adequate length of a trial for it to be considered a failure, thus allowing clinicians to systematically collect data aimed at assessing the degree of treatment-resistance of the current major depressive episode. • (3) The 28-item Hamilton Depression Scale (HAM-D-28): This version allows scoring of the HAM-D-17, 21-, 25-, and 28-item scales. This instrument is completed by the clinician by using a structured interview and defined anchor points, and aims to quantify the degree of depression over the past 7 days. The HAM-D is the most widely studied instrument for depression, and its reliability and validity are high. • (4) Clinical Global Impressions—Severity and Improvement (CGI-S, CGI-I): These two instruments are scored 1-7 by the clinician based on assessment of the patient's clinical status. They measure, based on history and scores on other instruments: a) Depressive severity (CGI-S) and b) Clinical Improvement (CGI-I). […] Safety Measurements
Data are entered and error-checked at each clinical site involved in the study. Study staff and subjects may have the option to enter self-evaluations into the system directly using DatStat Illume™. The process of data entry is supervised by the DCRP staff. Once the data set is entered and checked, analyses are conducted. Both a completer analysis of all patients finishing the trial and an intent-to-treat analysis examining all patients enrolled into the trial are used to define the severity of depression at endpoint. Examination of both study completers and all patients randomized can provide the broadest assessment of the effects of treatment in trials of such kind.

[1] = SSRI + 15 mg/day versus SSRI + placebo, after 30 days

Structure (SMILES): CN1c2c(nc(N)[nH]c2=O)NC[C@@H]1CNc1ccc(C(=O)N[C@@H](CCC(=O)O)C(=O)O)cc1 [6(S)-5-MTHF, 6(S)-5-methyltetrahydrofolate]
- CGI-S Mean score reduction (Phase 1): −1.3
- HDRS-17 % Remission (Phase 1): 15.7%
- HDRS-17 % Response (Phase 1): 36.8%
- HDRS-17 Mean score reduction (Phase 1): −7.5
- QIDS-SR % Remission (Phase 1): 21.0%
- QIDS-SR % Response (Phase 1): 36.8%
- QIDS-SR Mean score reduction (Phase 1): −8.1
- CGI-S Mean score reduction (Phase 2): −0.5
- HDRS-17 % Remission (Phase 2): 11.1%
- HDRS-17 % Response (Phase 2): 27.7%
- HDRS-17 Mean score reduction (Phase 2): −3.8
- QIDS-SR % Remission (Phase 2): 5.5%
- QIDS-SR % Response (Phase 2): 11.1%
- QIDS-SR Mean score reduction (Phase 2): −1.3
- CGI-S Mean score reduction (Pooled Phases 1 and 2): −0.92
- HDRS-17 % Remission (Pooled Phases 1 and 2): 13.4%
- HDRS-17 % Response (Pooled Phases 1 and 2): 32.3%
- HDRS-17 Mean score reduction (Pooled Phases 1 and 2): −5.58
- QIDS-SR % Remission (Pooled Phases 1 and 2): 13.3%
- QIDS-SR % Response (Pooled Phases 1 and 2): 23.9%
- QIDS-SR Mean score reduction (Pooled Phases 1 and 2): −4.7
- degree of improvement (HAM-D-17, QIDS-SR, CGI-S) [1]: greater degree of reduction in the scores of HAM-D-17, QIDS-SR and CGI-S
- percentage of remitters (HAM-D-17 or QIDS-SR) [1]: no significant difference
- percentage of responders (50% or greater reduction in HAM-D-17) [1]: response rate is higher for the 6(S)-5-MTHF group than the placebo group

— patent US9546401B2, “Assays and methods for selecting a treatment regimen for a subject with depression” (The General Hospital Corporation, priority 2011, dated 2017)
